pIC50: −log10 of the molar value. Read-outs that look alike come from different tables or passages of the source.

The target in this assay is recombinant human Nav1.7 (Homo sapiens (Human), UniProt Q15858). Briefly: FRET-based membrane potential assay, recombinant human sodium channel Nav1.7. The format is cell-based. As to conditions: read-out: FRET-Membrane Potential Nav1.7 IC50. In short, it runs like this: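 Channel activation used veratridine at its EC80, set by a dilution curve each experiment, together with Leiurus scorpion venom, added 3 min after compound. Membrane-potential ratio signals from FLIPR Tetra in HEPES-buffered HBSS were fitted to a four-parameter Hill equation for percent inhibition and IC50.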
Sequence of recombinant human Nav1.7 (Q15858 whole entry): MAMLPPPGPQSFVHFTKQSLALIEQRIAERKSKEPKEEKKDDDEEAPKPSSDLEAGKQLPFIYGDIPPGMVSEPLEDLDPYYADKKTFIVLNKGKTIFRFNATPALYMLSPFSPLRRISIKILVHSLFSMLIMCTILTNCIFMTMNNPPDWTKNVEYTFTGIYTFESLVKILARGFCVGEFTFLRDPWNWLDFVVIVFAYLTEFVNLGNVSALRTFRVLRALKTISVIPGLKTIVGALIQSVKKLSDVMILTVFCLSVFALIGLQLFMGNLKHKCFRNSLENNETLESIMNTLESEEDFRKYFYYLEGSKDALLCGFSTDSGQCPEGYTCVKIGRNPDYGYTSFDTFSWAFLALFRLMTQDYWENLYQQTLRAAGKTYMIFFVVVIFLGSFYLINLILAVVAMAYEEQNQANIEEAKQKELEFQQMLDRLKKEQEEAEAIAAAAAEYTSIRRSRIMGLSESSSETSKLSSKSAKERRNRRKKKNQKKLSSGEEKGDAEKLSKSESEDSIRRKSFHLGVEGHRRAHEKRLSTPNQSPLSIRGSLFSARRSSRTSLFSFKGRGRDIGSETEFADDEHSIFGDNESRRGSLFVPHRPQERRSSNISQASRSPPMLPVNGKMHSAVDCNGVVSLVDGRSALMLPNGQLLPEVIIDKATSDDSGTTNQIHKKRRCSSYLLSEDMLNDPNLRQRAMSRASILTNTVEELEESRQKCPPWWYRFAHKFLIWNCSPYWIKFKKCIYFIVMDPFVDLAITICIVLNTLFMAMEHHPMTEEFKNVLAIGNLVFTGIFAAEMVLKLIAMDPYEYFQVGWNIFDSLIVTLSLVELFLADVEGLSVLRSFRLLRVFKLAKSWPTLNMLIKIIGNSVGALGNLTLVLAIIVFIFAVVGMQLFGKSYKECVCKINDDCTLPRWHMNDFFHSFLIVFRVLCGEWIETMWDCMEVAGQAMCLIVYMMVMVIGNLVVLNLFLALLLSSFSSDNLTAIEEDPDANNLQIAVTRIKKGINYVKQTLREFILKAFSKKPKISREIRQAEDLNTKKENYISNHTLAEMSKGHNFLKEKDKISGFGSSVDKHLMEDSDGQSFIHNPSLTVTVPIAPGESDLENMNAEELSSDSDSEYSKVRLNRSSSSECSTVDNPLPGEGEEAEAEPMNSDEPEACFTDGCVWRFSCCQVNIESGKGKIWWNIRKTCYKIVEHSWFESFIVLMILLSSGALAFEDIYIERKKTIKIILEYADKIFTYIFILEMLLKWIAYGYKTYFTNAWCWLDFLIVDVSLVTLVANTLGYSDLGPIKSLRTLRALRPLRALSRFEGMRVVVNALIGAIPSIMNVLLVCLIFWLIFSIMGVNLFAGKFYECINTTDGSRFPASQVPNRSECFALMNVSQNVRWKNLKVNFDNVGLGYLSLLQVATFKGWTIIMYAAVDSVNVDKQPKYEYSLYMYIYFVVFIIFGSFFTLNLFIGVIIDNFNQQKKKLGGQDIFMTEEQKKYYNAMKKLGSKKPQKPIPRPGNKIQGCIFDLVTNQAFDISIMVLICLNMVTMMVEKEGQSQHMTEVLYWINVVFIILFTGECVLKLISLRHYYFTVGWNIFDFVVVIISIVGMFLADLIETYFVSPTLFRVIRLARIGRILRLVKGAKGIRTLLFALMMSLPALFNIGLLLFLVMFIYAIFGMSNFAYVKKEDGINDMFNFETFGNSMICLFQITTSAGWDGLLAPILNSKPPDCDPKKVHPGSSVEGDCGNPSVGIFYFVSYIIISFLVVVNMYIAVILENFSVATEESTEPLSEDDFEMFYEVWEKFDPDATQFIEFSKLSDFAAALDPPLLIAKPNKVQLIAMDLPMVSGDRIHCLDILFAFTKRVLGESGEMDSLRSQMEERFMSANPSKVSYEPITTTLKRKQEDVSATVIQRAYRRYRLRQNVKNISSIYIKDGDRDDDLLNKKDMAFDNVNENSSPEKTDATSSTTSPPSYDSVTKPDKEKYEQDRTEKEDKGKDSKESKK

Where [1] appears, read: HEK293 cells stably expressing recombinant human Nav1.7, veratridine + scorpion venom depolarization.

One may read the pIC50 as the negative decadic logarithm of the IC50, by convention in mol/L. As for `N#Cc1ccc(Oc2ccc3nc(C(=O)N4CCCC(C(F)(F)F)C4)ccc3c2)cc1` (stereo not shown) [Example 110, 4-[(2-{[3-(trifluoromethyl)piperidin-1-yl]carbonyl}quinolin-6-yl)oxy]benzonitrile], under setting [1], the pIC50 is 5.71. For `CCOCC1(F)CCN(C(=O)c2ccc3cc(Oc4ccc(C(F)(F)F)cn4)ccc3n2)C1` (stereo not shown) [Example 488, [3-(ethoxymethyl)-3-fluoropyrrolidin-1-yl](6-{[5-(trifluoromethyl)pyridin-2-yl]oxy}quinolin-2-yl)methanone], the pIC50 is 6.28. As to `O=C(c1ccc2cc(Oc3ccc(C(F)(F)F)cn3)ccc2n1)N1CCC(F)(F)C(O)C1` (stereo not shown) [Example 193, (4,4-difluoro-3-hydroxypiperidin-1-yl)(6-{[5-(trifluoromethyl)pyridin-2-yl]oxy}quinolin-2-yl)methanone], under setting [1], the pIC50 was 5.37.

As to `CC1(O)CCN(C(=O)CNC(=O)c2ccc3cc(Oc4ccc(C(F)(F)F)cn4)ccc3n2)C1` (stereo not shown) [Example 561, N-[2-(3-hydroxy-3-methylpyrrolidin-1-yl)-2-oxoethyl]-6-{[5-(trifluoromethyl)pyridin-2-yl]oxy}quinoline-2-carboxamide], the pIC50 under setting [1] is 5.46. Regarding `O=C(NCC(=O)N1CCOCC1)c1ccc2cc(Oc3ccc(C(F)(F)F)cn3)ccc2n1` [Example 443, N-[2-(morpholin-4-yl)-2-oxoethyl]-6-{[5-(trifluoromethyl)pyridin-2-yl]oxy}quinoline-2-carboxamide], the pIC50 under setting [1] was 6.15. On the same count and under the same terms, the figure for `O=C(c1ccc2cc(Oc3ccc(C(F)(F)F)cn3)ccc2n1)N1CC[C@H](O)[C@H](O)C1` (relative stereo) [Example 350, [cis-3,4-dihydroxypiperidin-1-yl](6-{[5-(trifluoromethyl)pyridin-2-yl]oxy}quinolin-2-yl)methanone] is under 4.70. Same read-out and setting: the figure for `O=C(c1ccc2cc(Oc3ncc(F)cn3)ccc2n1)N1CCNCC1` [Example 244, {6[(5-fluoropyrimidin-2-yl)oxy]quinolin-2-yl}(piperazin-1-yl)methanone] is under 4.70. As for `N#Cc1ccc(Oc2ccc3nc(C(=O)Nc4ccc(Oc5ccccc5)cc4)ccc3c2)cc1` [Example 101, 6-(4-cyanophenoxy)-N-(4-phenoxyphenyl)quinoline-2-carboxamide], the pIC50 was under 4.70. In the case of `CCN(CC)C(=O)CCNC(=O)c1ccc2cc(Oc3ccc(C(F)(F)F)nc3)ccc2n1` [Example 524, N-[3-(diethylamino)-3-oxopropyl]-6-{[6-(trifluoromethyl)pyridin-3-yl]oxy}quinoline-2-carboxamide], under setting [1], the pIC50 was 5.97. Consider `O=C(NC1COC1)c1ccc2cc(Oc3ccc(C(F)F)cn3)ccc2n1` [Example 475, 6-{[5-(difluoromethyl)pyridin-2-yl]oxy}-N-(oxetan-3-yl)quinoline-2-carboxamide], for which the pIC50 is 5.71.

Take `O=C(c1ccc2cc(Oc3ccc(C(F)(F)F)cn3)ccc2n1)N1CCc2ccncc2C1` [Example 222, 3,4-dihydro-2,7-naphthyridin-2(1H)-yl(6-{[5-(trifluoromethyl)pyridin-2-yl]oxy}quinolin-2-yl)methanone]: under setting [1], the pIC50 is 5.67. Same read-out and setting: the figure for `CN1CCN(C(=O)c2ccc3cc(Oc4ccccn4)ccc3n2)CC1` [Example 77, (4-methylpiperazin-1-yl)[6-(pyridin-2-yloxy)quinolin-2-yl]methanone] is under 4.70.

Turning to `NS(=O)(=O)CCNC(=O)c1ccc2cc(Oc3ccc(C(F)(F)F)cn3)ccc2n1` [Example 317, N-(2-sulfamoylethyl)-6-{[5-(trifluoromethyl)pyridin-2-yl]oxy}quinoline-2-carboxamide], under setting [1], the pIC50 is 5.52. Take `Cc1ccccc1NC(=O)CCNC(=O)c1ccc2cc(Oc3ccc(C(F)(F)F)cn3)ccc2n1` [Example 500, N-{3-[(2-methylphenyl)amino]-3-oxopropyl}-6-{[5-(trifluoromethyl)pyridin-2-yl]oxy}quinoline-2-carboxamide]: the pIC50 under setting [1] was 6.53. As for `O=C(c1ccc2cc(Oc3ccc(C(F)(F)F)cn3)ccc2n1)N1CCC(N2C[C@H]3C[C@@H]2CO3)CC1` [Example 378, {4-[(1R,4R)-2-oxa-5-azabicyclo[2.2.1]hept-5-yl]piperidin-1-yl}(6-{[5-(trifluoromethyl)pyridin-2-yl]oxy}quinolin-2-yl)methanone], the pIC50 under setting [1] was 5.65.

On to `O=C(c1ccc2cc(Oc3ccc(C(F)(F)F)cn3)ccc2n1)N1CCC(N2CCOCC2)C1` (stereo not shown) [Example 316, [3-(morpholin-4-yl)pyrrolidin-1-yl](6-{[5-(trifluoromethyl)pyridin-2-yl]oxy}quinolin-2-yl)methanone], for which the pIC50 was 4.92.

With `CCN(CC)C(=O)CNC(=O)c1ccc2cc(Oc3ccc(C(F)(F)F)nc3)ccc2n1` [Example 517, N-[2-(diethylamino)-2-oxoethyl]-6-{[6-(trifluoromethyl)pyridin-3-yl]oxy}quinoline-2-carboxamide], the pIC50 under setting [1] is 6.43. For the molecule `O=C(NCc1ccccn1)c1ccc2cc(Oc3ccc(C(F)(F)F)cn3)ccc2n1` [Example 151, N-(pyridin-2-ylmethyl)-6-{[5-(trifluoromethyl)pyridin-2-yl]oxy}quinoline-2-carboxamide], under setting [1], the pIC50 is 6.10. The same measure, in the same setting: the figure for `CN(C(=O)c1ccc2cc(Oc3ccc(C(F)(F)F)cn3)ccc2n1)C1COC1` [Example 480, N-methyl-N-(oxetan-3-yl)-6-{[5-(trifluoromethyl)pyridin-2-yl]oxy}quinoline-2-carboxamide] is 4.70; for `O=C(N[C@@H]1CS(=O)(=O)C[C@H]1O)c1ccc2cc(Oc3ccc(C(F)(F)F)nc3)ccc2n1` [Example 538, N-[(3S,4S)-4-hydroxy-1,1-dioxidotetrahydrothiophen-3-yl]-6-{[6-(trifluoromethyl)pyridin-3-yl]oxy}quinoline-2-carboxamide] it is 5.50; for `COc1ccccc1N1CC(NC(=O)c2ccc3cc(Oc4ccc(C(F)(F)F)cn4)ccc3n2)CC1=O` (stereo not shown) [Example 502, N-[1-(2-methoxyphenyl)-5-oxopyrrolidin-3-yl]-6-{[5-(trifluoromethyl)pyridin-2-yl]oxy}quinoline-2-carboxamide] it is 6.37. Regarding `CN(C(=O)c1ccc2cc(Oc3ccc(C(F)(F)F)cn3)ccc2n1)C1CCS(=O)(=O)C1` (stereo not shown) [Example 419, N-(1,1-dioxidotetrahydrothiophen-3-yl)-N-methyl-6-{[5-(trifluoromethyl)pyridin-2-yl]oxy}quinoline-2-carboxamide], under setting [1], the pIC50 is 4.92.

As for `O=C(N[C@@H]1CCNC1)c1ccc2cc(Oc3ccc(C(F)(F)F)cn3)ccc2n1` [Example 331, N-[(3R)-pyrrolidin-3-yl]-6-{[5-(trifluoromethyl)pyridin-2-yl]oxy}quinoline-2-carboxamide], the pIC50 was 5.58. Turning to `O=C(NCC1CSC1)c1ccc2cc(Oc3ccc(C(F)(F)F)cn3)ccc2n1` [Example 600, N-(thietan-3-ylmethyl)-6-{[5-(trifluoromethyl)pyridin-2-yl]oxy}quinoline-2-carboxamide], the negative-log IC50 (pIC50) under setting [1] is 5.75. As to `O=C(NCC1CS(=O)(=O)C1)c1ccc2cc(Oc3ccc(C(F)(F)F)cn3)ccc2n1` [Example 602, N-[(1,1-dioxidothietan-3-yl)methyl]-6-{[5-(trifluoromethyl)pyridin-2-yl]oxy}quinoline-2-carboxamide], under setting [1], the pIC50 is 5.97. For the molecule `O=C(c1ccc2cc(Oc3ccc(C(F)(F)F)cn3)ccc2n1)N1CCN2C[C@@H](F)C[C@@H]2C1` [Example 356, [(7S,8aR)-7-fluorohexahydropyrrolo[1,2-a]pyrazin-2(1H)-yl](6-{[5-(trifluoromethyl)pyridin-2-yl]oxy}quinolin-2-yl)methanone], the pIC50 is 5.47. On the same count and under the same terms, the figure for `N#Cc1ccc(Oc2ccc3nc(C(=O)NC4CCNC(=O)C4)ccc3c2)cc1` (stereo not shown) [Example 484, 6-(4-cyanophenoxy)-N-(2-oxopiperidin-4-yl)quinoline-2-carboxamide] is 6.06.

Turning to `O=C(c1ccc2cc(Oc3ccc(C(F)(F)F)cn3)ccc2n1)N1CCNC[C@@H]1CO` [Example 243, [(2R)-2-(hydroxymethyl)piperazin-1-yl](6-{[5-(trifluoromethyl)pyridin-2-yl]oxy}quinolin-2-yl)methanone], the pIC50 under setting [1] is under 4.70.

As for `O=C(c1ccc2cc(Oc3ccc(C(F)(F)F)cn3)ccc2n1)N1CCN(c2cccnn2)CC1` [Example 271, [4-(pyridazin-3-yl)piperazin-1-yl](6-{[5-(trifluoromethyl)pyridin-2-yl]oxy}quinolin-2-yl)methanone], the pIC50 is 4.95. Turning to `O=C(c1ccc2cc(Oc3ccc(C(F)(F)F)cn3)ccc2n1)N1C[C@@H](O)[C@H](O)C1` (relative stereo) [Example 303, [trans-3,4-dihydroxypyrrolidin-1-yl](6-{[5-(trifluoromethyl)pyridin-2-yl]oxy}quinolin-2-yl)methanone], the pIC50 under setting [1] was 5.25. On to `C[C@@H]1N(C(=O)c2ccc3cc(Oc4ccc(C(F)(F)F)cn4)ccc3n2)CC1(C)C` [Example 205, (6-{[5-(trifluoromethyl)pyridin-2-yl]oxy}quinolin-2-yl)[(2S)-2,3,3-trimethylazetidin-1-yl]methanone], for which the pIC50 under setting [1] was 5.50.

In the case of `O=C(c1ccc2cc(Oc3ccc(C(F)(F)F)cn3)ccc2n1)N1CCC(O)CC1` [Example 256, (4-hydroxypiperidin-1-yl)(6-{[5-(trifluoromethyl)pyridin-2-yl]oxy}quinolin-2-yl)methanone], the pIC50 was 4.79. With `CC1(O)CC(NC(=O)c2ccc3cc(Oc4ccc(C(F)(F)F)cn4)ccc3n2)C1` (stereo not shown) [Example 426, N-(3-hydroxy-3-methylcyclobutyl)-6-{[5-(trifluoromethyl)pyridin-2-yl]oxy}quinoline-2-carboxamide], the pIC50 under setting [1] is 6.01. For the molecule `O=C(c1ccc2cc(Oc3ccc(C(F)F)cn3)ccc2n1)N1CCC(N2CCOCC2)CC1` [Example 435, (6-{[5-(difluoromethyl)pyridin-2-yl]oxy}quinolin-2-yl)[4-(morpholin-4-yl)piperidin-1-yl]methanone], the pIC50 was 4.90.

These data come from patent publication US9452986B2, “6-heteroaryloxy- or 6-aryloxy-quinoline-2-carboxamides and method of use” (AbbVie Inc., priority 2014, dated 2016).
